{
  "source": "patent US9567358B2",
  "about": "“Methods of treatment using N-(3-fluorophenyl)-2-{3-[(7-{3-[ethyl(2-hydroxyethyl)amino]propoxy}-quinazolin-4-yl)amino]-1H-pyrazol-5-yl}acetamide” (AstraZeneca AB, priority 2002, dated 2017)",
  "key": {"[1]": {"target": "T1, Aurora-B (Homo sapiens, UniProt Q96GD4)", "T1 construct": "6-histidine tag; made in house; host or cells: Spodoptera frugiperda Sf21 insect cells (baculovirus)", "T1 sequence (Q96GD4 whole entry)": "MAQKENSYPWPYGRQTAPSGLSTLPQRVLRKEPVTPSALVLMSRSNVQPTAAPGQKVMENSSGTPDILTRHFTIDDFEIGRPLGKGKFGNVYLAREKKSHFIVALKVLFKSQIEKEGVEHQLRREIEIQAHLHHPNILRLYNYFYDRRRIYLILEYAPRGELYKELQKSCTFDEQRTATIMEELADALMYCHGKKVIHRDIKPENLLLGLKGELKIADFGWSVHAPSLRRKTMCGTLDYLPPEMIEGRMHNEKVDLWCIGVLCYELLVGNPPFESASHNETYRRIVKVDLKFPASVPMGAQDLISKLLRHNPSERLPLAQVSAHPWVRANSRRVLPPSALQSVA", "test": "In vitro Aurora-B kinase inhibition test", "assay_type": "biochemical", "conditions": "recombinant Aurora-B, 33P-ATP peptide substrate filter assay, 60 minutes, room temperature; read-out: concentration giving 50% inhibition of enzyme activity", "from_the_text": "(b) In Vitro Aurora-B Kinase Inhibition Test\nThis assay determines the ability of a test compound to inhibit serine-threonine kinase activity. DNA encoding Aurora-B may be obtained by total gene synthesis or by cloning. This DNA may then be expressed in a suitable expression system to obtain polypeptide with serine-threonine kinase activity. In the case of Aurora-B, the coding sequence was isolated from cDNA by polymerase chain reaction (PCR) and cloned into the pFastBac system in a manner similar to that described above for Aurora-A (i.e. to direct expression of a 6-histidine tagged Aurora-B protein).\nFor the large scale expression of Aurora-B kinase activity, Sf21 insect cells were grown at 28° C. in TC100 medium supplemented with 10% foetal calf serum (Viralex) and 0.2% F68 Pluronic (Sigma) on a Wheaton roller rig at 3 r.p.m. When the cell density reached 1.2×10^6 cells ml^−1 they were infected with plaque-pure Aurora-B recombinant virus at a multiplicity of infection of 1 and harvested 48 hours later. All subsequent purification steps were performed at 4° C. […]"}, "[2]": {"target": "T2, Aurora-A (Homo sapiens, UniProt O14965)", "T2 construct": "6 histidine tag with spacer region and rTEV protease cleavage site (pFastBac HTc) (N); made in house; host or cells: Spodoptera frugiperda Sf21 insect cells (baculovirus)", "T2 sequence (O14965 1-403)": "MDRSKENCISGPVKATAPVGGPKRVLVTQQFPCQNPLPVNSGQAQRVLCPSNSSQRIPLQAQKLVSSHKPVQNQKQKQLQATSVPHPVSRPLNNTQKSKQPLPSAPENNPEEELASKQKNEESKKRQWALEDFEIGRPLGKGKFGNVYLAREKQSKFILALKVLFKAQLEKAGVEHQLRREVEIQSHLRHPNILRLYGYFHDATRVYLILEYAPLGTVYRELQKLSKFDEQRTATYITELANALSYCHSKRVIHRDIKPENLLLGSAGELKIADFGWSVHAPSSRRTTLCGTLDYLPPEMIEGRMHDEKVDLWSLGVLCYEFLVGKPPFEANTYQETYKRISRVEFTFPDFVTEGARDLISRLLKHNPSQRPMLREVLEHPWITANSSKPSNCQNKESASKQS", "test": "In vitro Aurora-A kinase inhibition test", "assay_type": "biochemical"}, "[3]": {"tested_on": "human tumour cell line SW620", "test": "In vitro cell proliferation assay (BrdU incorporation)", "assay_type": "cell-based", "conditions": "SW-620, SW620 cells, 48 hours with compound, 2 hour BrdU labelling, read-out: active at (concentration giving 50% inhibition of BrdU incorporation)", "from_the_text": "(c) In Vitro Cell Proliferation Assay\nThis and other assays can be used to determine the ability of a test compound to inhibit the growth of adherent mammalian cell lines, for example the human tumour cell line SW620 (ATCC CCL-227). This assay determines the ability of at test compound to inhibit the incorporation of the thymidine analogue, 5′-bromo-2′-deoxy-uridine (BrdU) into cellular DNA. SW620 or other adherent cells were typically seeded at 1×10^5 cells per well in L-15 media (GIBCO) plus 5% foetal calf serum, 1% L-glutamine (100 μl/well) in 96 well tissue culture treated 96 well plates (Costar) and allowed to adhere overnight. […] The optical density of the wells was then determined at 690 nm wavelength using a Titertek Multiscan plate reader. […]"}},
  "data": [
    {"compound": "COc1cc2c(Nc3cc(CC(=O)Nc4cccc(F)c4)[nH]n3)ncnc2cc1OCCCN1CCC[C@H]1COP(=O)(O)O", "note": "[Compound 5, {(2S)-1-[3-({4-[(5-{2-[(3-fluorophenyl)amino]-2-oxoethyl}-1H-pyrazol-3-yl)amino]-6-methoxyquinazolin-7-yl}oxy)propyl]pyrrolidin-2-yl}methyl dihydrogen phosphate]", "values": [
      {"measurement": "IC50", "setting": "[1]", "result": 1.6, "unit": "nM"},
      {"measurement": "IC50", "setting": "[2]", "result": 5.5, "unit": "nM"},
      {"measurement": "IC50", "setting": "[3]", "result": 0.1, "unit": "nM"}
    ]}
  ]
}
